Reference: patent US11661430B2, “Tetrazole derivatives as TRPA1 inhibitors” (Boehringer Ingelheim International GmbH, priority 2020, dated 2023)

Key:
[1] = Assay C: Hepatocyte clearance; type: in vitro ADME, human; details: hepatocyte suspension, 1 μM test compound, 5% species serum, six hours
Method: Assay C: Hepatocyte Clearance
The metabolic degradation of the test compound is assayed in a hepatocyte suspension. Hepatocytes (cryopreserved) are incubated in Dulbecco's modified eagle medium (supplemented with 3.5 μg glucagon/500 mL, 2.5 mg insulin/500 mL and 3.75 mg/500 mL hydrocortison) containing 5% species serum.
The cells are incubated for six hours (incubator, orbital shaker) and samples (25 μl) are taken at 0, 0.5, 1, 2, 4 and 6 hours. Samples are transferred into acetonitrile and pelleted by centrifugation (5 min). The supernatant is transferred to a new 96-deepwell plate, evaporated under nitrogen and resuspended.
Decline of Parent Compound is Analyzed by HPLC-MS/MS
CLint is calculated as follows CL_[…]=Dose/AUC=(CO/CD)/(AUD+clast/k)×1000/60. C0: initial concentration in the incubation [μM], CD: cell density of vital cells [10e6 cells/mL], AUD: area under the data [μM×h], clast: concentration of last data point [μM], k: slope of the regression line for parent decline [h−1].
The calculated in vitro hepatic intrinsic clearance can be scaled up to the intrinsic in vivo hepatic Clearance and used to predict hepatic in vivo blood clearance (CL) by the use of a liver model (well stirred model). CL_[…]_INVIVO [ml/min/kg]=(CL_[…] [μL/min/10e6 cells]×hepatocellularity [10e6 cells/g liver]×liver factor [g/kg bodyweight])/1000 CL[ml/min/kg]=CL_[…]_INVIVO [ml/min/kg]×hepatic blood flow [ml/min/kg]/(CL_[…]_INVIVO [ml/min/kg]+hepatic blood flow [ml/min/kg]) Qh[%]=CL[ml/min/kg]/hepatic blood flow [ml/min/kg])
(§1) Hepatocellularity, human: 120×10e6 cells/g liver
(§2) Liver factor, human: 25.7 g/kg bodyweight
(§3) Blood flow, human: 21 ml/(min×kg)

[2] = Assay B: Microsomal clearance; type: in vitro ADME, human; details: pooled liver microsomes, 1 μM test compound, 37° C., NADPH
Method: Assay B: Microsomal Clearance:
The metabolic degradation of the test compound is assayed at 37° C. with pooled liver microsomes. The final incubation volume of 100 μl per time point contains TRIS buffer pH 7.6 at RT (0.1 M), magnesium chloride (5 mM), microsomal protein (1 mg/ml) and the test compound at a final concentration of 1 μM.
Following a short preincubation period at 37° C., the reactions are initiated by addition of beta-nicotinamide adenine dinucleotide phosphate, reduced form (NADPH, 1 mM) and terminated by transferring an aliquot into solvent after different time points (0, 5, 15, 30, 60 min). Additionally, the NADPH-independent degradation is monitored in incubations without NADPH, terminated at the last time point. The [%] remaining test compound after NADPH independent incubation is reflected by the parameter c(control) (metabolic stability). The quenched incubations are pelleted by centrifugation (10000 g, 5 min). An aliquot of the supernatant is assayed by LC-MS/MS for the amount of parent compound. The half-life (t½ INVITRO) is determined by the slope of the semilogarithmic plot of the concentration-time profile.
The intrinsic clearance (CL_[…]) is calculated by considering the amount of protein in the incubation: CL_[…] [μl/min/mg protein]=(Ln 2/(half-life [min]*protein content [mg/ml]))*1000 CL_[…]_INVIVO [ml/min/kg]=(CL_[…] [μL/min/mg protein]×MPPGL [mg protein/g liver]×liver factor [g/kg bodyweight])/1000 Qh[%]=CL[ml/min/kg]/hepatic blood flow [ml/min/kg])
as §1, §2, §3

human TRPA1 ion channel = target: T1, human TRPA1 ion channel (Homo sapiens, UniProt O75762); test: Assay A: TRPA1 assay (FLIPR, AITC-induced intracellular calcium in HEK293 cells); type: cell-based; details: HEK293 cells over-expressing human TRPA1, AITC 10 μM, FLIPRtetra; read-out: hTRPA1 IC50
T1 construct: host or cells: HEK293
T1 sequence (O75762 whole entry): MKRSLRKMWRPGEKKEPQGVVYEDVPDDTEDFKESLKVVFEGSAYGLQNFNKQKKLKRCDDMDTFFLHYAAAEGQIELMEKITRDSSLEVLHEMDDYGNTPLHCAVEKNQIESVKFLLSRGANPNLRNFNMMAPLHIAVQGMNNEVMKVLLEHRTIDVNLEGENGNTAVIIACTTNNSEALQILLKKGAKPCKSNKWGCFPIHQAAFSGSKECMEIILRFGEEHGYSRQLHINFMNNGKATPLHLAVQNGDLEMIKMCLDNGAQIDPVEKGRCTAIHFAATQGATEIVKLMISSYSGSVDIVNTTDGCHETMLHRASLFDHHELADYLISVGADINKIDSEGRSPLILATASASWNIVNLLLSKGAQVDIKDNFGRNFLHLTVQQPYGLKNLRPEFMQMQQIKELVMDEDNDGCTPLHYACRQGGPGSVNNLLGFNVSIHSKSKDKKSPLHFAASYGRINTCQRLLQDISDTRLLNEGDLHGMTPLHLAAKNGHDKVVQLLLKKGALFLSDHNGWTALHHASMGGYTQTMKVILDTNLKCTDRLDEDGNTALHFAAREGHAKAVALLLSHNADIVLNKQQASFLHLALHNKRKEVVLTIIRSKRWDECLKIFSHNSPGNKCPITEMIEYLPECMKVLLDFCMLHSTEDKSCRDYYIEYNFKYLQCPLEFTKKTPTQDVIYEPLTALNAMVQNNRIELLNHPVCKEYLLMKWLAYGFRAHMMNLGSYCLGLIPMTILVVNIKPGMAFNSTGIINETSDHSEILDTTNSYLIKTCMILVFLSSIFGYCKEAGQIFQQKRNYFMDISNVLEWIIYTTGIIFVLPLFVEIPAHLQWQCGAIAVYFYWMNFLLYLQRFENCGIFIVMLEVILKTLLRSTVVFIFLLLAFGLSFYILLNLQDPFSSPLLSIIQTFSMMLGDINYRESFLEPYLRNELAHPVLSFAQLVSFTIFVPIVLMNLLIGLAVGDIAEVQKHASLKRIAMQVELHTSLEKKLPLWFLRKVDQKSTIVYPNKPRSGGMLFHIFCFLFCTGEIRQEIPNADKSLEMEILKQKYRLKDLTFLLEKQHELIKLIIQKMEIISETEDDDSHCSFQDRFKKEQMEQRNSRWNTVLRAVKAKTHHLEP
Method: A human HEK293 cell line over-expressing the human TRPA1 ion channel (Perkin Elmer, Product No. AX-004-PCL) is used as a test system for compound efficacy and potency. Compound activity is determined by measuring the effect of compounds on intracellular calcium concentration induced by AITC (Allylisothiocyanat) agonism in a FLIPRtetra system (Molecular Devices).
The cells are obtained as frozen cells in cryo-vials and stored until use at −150° C. Cells are grown in culture medium (MEM/EBSS medium with 10% FCS and 0.4 mg/ML Geneticin). […] For sub-culturing cells are detached from flasks by Versene. At the day before the assay, cells are detached, washed twice with medium (MEM/EBSS medium with 10% FCS) and 20000 cells in 20 μl/well are seeded to Poly D-Lysin biocoated 384-well plates (black, clear bottom, Cat. 356697) from Corning. Plates are incubated for 24 hours at 37° C./5% CO2 before use in the assay.
The test compounds are dissolved in 100% DMSO at a concentration of 10 mM and in a first step diluted in DMSO to a concentration of 5 mM, followed by serial dilution steps in 100% DMSO. Dilution factor and number of dilution steps may vary according to needs. Typically 8 different concentrations by 1:5 dilutions are prepared, further intermediate dilutions (1:20) of the substances are carried out with HBSS/HEPES buffer (1×HEPES, Cat. 14065 from Gibco, 20 mM HEPES, Cat. 83264 from SIGMA, 0.1% BSA Cat. 11926 from Invitrogen, pH 7.4
At the assay day cells are washed 3× with assay puffer, 20 μL buffer remaining in the wells after washing. 10 μL Ca6 kit (Cat. R8191 Molecular Devices) loading buffer in HBSS/HEPES is added to the cells and the plates are incubated with lid for 120 minutes at 37°/5% CO2. […] Finally 10 μL of the agonist AITC 50 μM dissolved in HBSS/HEPES buffer/0.05% DMSO (final concentration 10 μM) is added to the wells followed by an additional read on the FLIPRtetra device for 10 minutes. The area under the signal curve (AUC) after AITC addition is used for IC50/% inhibition calculations
Data Evaluation and Calculation:
Each assay microtiter plate contains wells with vehicle (1% DMSO) controls instead of compound as controls for AITC induced luminescence (100% CTL; high controls) and wells with vehicle controls without AITC as controls for non-specific changes in luminescence (0% CTL; low controls).
The analysis of the data is performed by the calculation of the area under signal curve of the individual wells. Based on this values the % value for the measurement of each substance concentration is calculated (AUC(sample)−AUC(low))*100/(AUC(high)−AUC(low)) using MegaLab software (in house development). The IC50 values are calculated from the % control values using MegaLab software. Calculation: [y=(a−d)/(1+(x/c)^b)+d], a=low value, d=high value; x=conc M; c=IC50 M; b=hill; y=% ctrl

Structure (SMILES)	human Hepatocytes [% Qh] [1] [% Qh]	human LM [% Qh] [2] [% Qh]	IC50 (human TRPA1 ion channel) [nM]
NC(=O)c1csc2ncn(Cc3nnn(C[C@H](O)c4ccc(Cl)cc4)n3)c(=O)c12 [Example 1, 3-({2-[(2R)-2-(4-chlorophenyl)-2-hydroxyethyl]-2H-1,2,3,4-tetrazol-5-yl}methyl)-4-oxo-3H,4H-thieno[2,3-d]pyrimidine-5-carboxamide]	<4	<23	28
NC(=O)c1csc2ncn(Cc3nnn(C[C@H](O)c4cc5ccc(F)cc5s4)n3)c(=O)c12 [Example 2]	19	33	–
NC(=O)c1csc2ncn(Cc3nnn(C[C@H](O)c4cc5cc(Cl)ccc5o4)n3)c(=O)c12 [Example 3]	26	27	–
NC(=O)c1csc2ncn(Cc3nnn(C[C@H](O)c4ccc5oc(F)cc5c4)n3)c(=O)c12 [Example 4]	6	<23	–
NC(=O)c1csc2ncn(Cc3nnn(C[C@H](O)c4cc5ccccc5s4)n3)c(=O)c12 [Example 5]	20	28	–
NC(=O)c1csc2ncn(Cc3nnn(C[C@H](O)c4cc5cc(F)ccc5o4)n3)c(=O)c12 [Example 6]	26	<23	–
NC(=O)c1csc2ncn(Cc3nnn(C[C@H](O)c4cc(Cl)c(Cl)s4)n3)c(=O)c12 [Example 7]	41	34	–
NC(=O)c1csc2ncn(Cc3nnn(C[C@H](O)c4cc5cc(Cl)c(F)cc5o4)n3)c(=O)c12 [Example 8]	20	26	26
NC(=O)c1csc2ncn(Cc3nnn(C[C@H](O)c4cc5ccccc5o4)n3)c(=O)c12 [Example 9]	14	<23	29
Cc1ccc([C@@H](O)Cn2nnc(Cn3cnc4scc(C(N)=O)c4c3=O)n2)cc1 [Example 10]	8	<23	31
NC(=O)c1csc2ncn(Cc3nnn(C[C@H](O)c4ccc(Cl)s4)n3)c(=O)c12 [Example 11]	14	<23	31
NC(=O)c1csc2ncn(Cc3nnn(C[C@H](O)c4ccc(Br)cc4)n3)c(=O)c12 [Example 12]	<4	<23	34
NC(=O)c1csc2ncn(Cc3nnn(C[C@H](O)c4cc5cc(F)c(F)cc5o4)n3)c(=O)c12 [Example 13]	10	<23	37
NC(=O)c1csc2ncn(Cc3nnn(C[C@H](O)c4cc5cccc(F)c5o4)n3)c(=O)c12 [Example 14]	14	<23	41
NC(=O)c1csc2ncn(Cc3nnn(C[C@H](O)c4cc5cc(F)c(Cl)cc5o4)n3)c(=O)c12 [Example 15]	30	<23	65
N#Cc1cc2ccc([C@@H](O)Cn3nnc(Cn4cnc5scc(C(N)=O)c5c4=O)n3)cc2o1 [Example 16]	19	<23	70
COc1ccc([C@@H](O)Cn2nnc(Cn3cnc4scc(C(N)=O)c4c3=O)n2)cc1 [Example 17]	18	<23	131
N#Cc1ccc([C@@H](O)Cn2nnc(Cn3cnc4scc(C(N)=O)c4c3=O)n2)s1 [Example 18]	<4	<23	143
